Laboratory results reported in patent publication US9108983B2, “Pyrrole compounds, a process for their preparation and pharmaceutical compositions containing them” (LES LABORATOIRES SERVIER, priority 2013, dated 2015).
Counter-ions that a name gives are not always drawn.

Assays:
[1] = molecular target: Bcl-2 protein (histag-Bcl-2, UniProtKB P10415) (Homo sapiens (Human), UniProt P10415); assay: Inhibition of Bcl-2 by the fluorescence polarisation technique; format: binding; settings: incubation for 2 hours, read-out: IC50 (nM) Bcl-2 FP
In short: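 Fluorescence polarisation competition: His-tagged Bcl-2 (2.50×10^−8 M final) with fluorescein-labelled peptide (1.00×10^−8 M final) in 10 mM Hepes, 150 mM NaCl, 0.05% Tween20, pH 7.4. Increasing compound concentrations were added. Polarisation was read after 2 h incubation.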

[2] = tested on: RS4;11 leukaemia tumour line; assay: In vitro cytotoxicity (Microculture Tetrazolium Assay); format: cell-based; settings: Homo sapiens, RS4-11, 48 h, RS4;11 cells, exposed for 48 hours, cell viability; read-out: IC50 (nM) MTT RS4;11
Protocol: The cytotoxicity studies were carried out on the RS4;11 leukaemia tumour line.
The cells are distributed onto microplates and exposed to the test compounds for 48 hours.
The cell viability is then quantified by a colorimetric assay, the Microculture Tetrazolium Assay (Cancer Res., 1987, 47, 939-942).

Bcl-2 protein, sequence (P10415 whole entry): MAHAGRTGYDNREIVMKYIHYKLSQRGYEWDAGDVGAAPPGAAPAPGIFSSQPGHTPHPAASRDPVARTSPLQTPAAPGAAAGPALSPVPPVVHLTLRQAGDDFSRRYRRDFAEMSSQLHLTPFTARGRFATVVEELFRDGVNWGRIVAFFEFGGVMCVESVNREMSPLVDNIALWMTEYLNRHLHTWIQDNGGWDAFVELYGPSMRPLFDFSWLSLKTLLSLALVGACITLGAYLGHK

SMILES | IC50 [1] [nM] | IC50 [2] [nM]
COC(=O)c1ccnc(N(C(=O)c2cc(-c3cc(Cl)ccc3C(=O)N3Cc4ccccc4C[C@H]3CN3CCOCC3)n(C)c2C)c2ccc(O)cc2)c1 [Example 400, Methyl 2-[{[5-(5-chloro-2-{[(3S)-3-(morpholin-4-ylmethyl)-3,4-dihydroisoquinolin-2(1H)-yl]carbonyl}phenyl)-1,2-dimethyl-1H-pyrrol-3-yl]carbonyl}(4-hydroxyphenyl)amino]pyridine-4-carboxylate hydrochloride] | 49 | 469
Cc1c(C(=O)N(c2ccc(O)cc2)c2ccc3c(ccn3C)n2)cc(-c2cc(Cl)ccc2C(=O)N2Cc3ccccc3C[C@H]2CN2CCOCC2)n1C [Example 391, 5-(5-Chloro-2-{[(3S)-3-(morpholin-4-ylmethyl)-3,4-dihydroisoquinolin-2(1H)-yl]carbonyl}phenyl)-N-(4-hydroxyphenyl)-1,2-dimethyl-N-(1-methyl-1H-pyrrolo[3,2-b]pyridin-5-yl)-1H-pyrrole-3-carboxamide hydrochloride] | 30.3 | 255
Cc1c(C(=O)N(c2cnc3c(ccn3C)c2)c2ccc(O)cn2)cc(-c2cc(Cl)ccc2C(=O)N2Cc3ccccc3C[C@H]2CN2CCOCC2)n1C [Example 464, 5-(5-Chloro-2-{[(3S)-3-(morpholin-4-ylmethyl)-3,4-dihydroisoquinolin-2(1H)-yl]carbonyl}phenyl)-N-(5-hydroxypyridin-2-yl)-1,2-dimethyl-N-(1-methyl-1H-pyrrolo[2,3-b]pyridin-5-yl)-1H-pyrrole-3-carboxamide dihydrochloride] | 36.6 | 723
Cc1c(C(=O)N(c2ccncc2)c2ccc(O)cc2)cc(-c2cc(F)ccc2C(=O)N2Cc3ccccc3C[C@H]2CN2CCOCC2)n1C [Example 384, 5-(5-Fluoro-2-{[(3S)-3-(morpholin-4-ylmethyl)-3,4-dihydroisoquinolin-2(1H)-yl]carbonyl}phenyl)-N-(4-hydroxyphenyl)-1,2-dimethyl-N-(pyridin-4-yl)-1H-pyrrole-3-carboxamide hydrochloride] | 9.7 | 216
Cc1c(C(=O)N(c2ccccc2)c2ccc(O)cc2)cc(-c2cc(F)ccc2C(=O)N2Cc3ccccc3C[C@H]2CN2CCOCC2)n1C [Example 10, 5-(5-Fluoro-2-{[(3S)-3-(morpholin-4-ylmethyl)-3,4-dihydroisoquinolin-2(1H)-yl]carbonyl}phenyl)-N-(4-hydroxyphenyl)-1,2-dimethyl-N-phenyl-1H-pyrrole-3-carboxamide hydrochloride] | 16.2 | 205
Cc1c(C(=O)N(C)c2ccc(O)cc2)cc(-c2cc(CNC(=O)COc3ccccc3)ccc2C(=O)N2Cc3ccccc3C[C@H]2C)n1C [Example 53, N-(4-Hydroxyphenyl)-N,1,2-trimethyl-5-(2-{[(3R)-3-methyl-3,4-dihydroisoquinolin-2(1H)-yl]carbonyl}-5-{[(phenoxyacetyl)amino]methyl}phenyl)-1H-pyrrole-3-carboxamide] | 43.5 | 293
Cc1c(C(=O)N(c2ccc(O)cc2)c2cc3ccn(C)c3cn2)cc(-c2cc3c(cc2C(=O)N2Cc4ccccc4C[C@H]2CN2CCOCC2)OCO3)n1C [Example 387, N-(4-Hydroxyphenyl)-1,2-dimethyl-N-(1-methyl-1H-pyrrolo[2,3-c]pyridin-5-yl)-5-(6-{[(3S)-3-(morpholin-4-ylmethyl)-3,4-dihydroisoquinolin-2(1H)-yl]carbonyl}-1,3-benzodioxol-5-yl)-1H-pyrrole-3-carboxamide hydrochloride] | 20.6 | 243
Cc1c(C(=O)N(c2ccccc2)c2ccc(O)cc2)cc(-c2cc(F)ccc2C(=O)N2Cc3ccccc3C[C@H]2CN2CCOCC2)n1CCCO [Example 11, 5-(5-Fluoro-2-{[(3S)-3-(morpholin-4-ylmethyl)-3,4-dihydroisoquinolin-2(1H)-yl]carbonyl}phenyl)-N-(4-hydroxyphenyl)-1-(3-hydroxypropyl)-2-methyl-N-phenyl-1H-pyrrole-3-carboxamide hydrochloride] | 14.2 | 202

Compounds with a lower IC50 [1], results first:

IC50 [1] [nM] | SMILES | IC50 [2] [nM]
7.7 | Cc1c(C(=O)N(c2ccc(O)cc2)c2ccc3c(c2)ncn3C)cc(-c2cc(Cl)ccc2C(=O)N2Cc3ccccc3C[C@H]2CN2CCOCC2)n1C [Example 72, 5-(5-Chloro-2-{[(3S)-3-(morpholin-4-ylmethyl)-3,4-dihydroisoquinolin-2(1H)-yl]carbonyl}phenyl)-N-(4-hydroxyphenyl)-1,2-dimethyl-N-(1-methyl-1H-benzimidazol-5-yl)-1H-pyrrole-3-carboxamide] | 43.6
2.2 | COc1ccc(N(C(=O)c2cc(-c3cc(F)ccc3C(=O)N3Cc4ccccc4C[C@H]3CN3CCOCC3)n(C)c2C)c2ccc(O)cc2)cc1C#N [Example 427, N-(3-Cyano-4-methoxyphenyl)-5-(5-fluoro-2-{[(3S)-3-(morpholin-4-ylmethyl)-3,4-dihydroisoquinolin-2(1H)-yl]carbonyl}phenyl)-N-(4-hydroxyphenyl)-1,2-dimethyl-1H-pyrrole-3-carboxamide hydrochloride] | 23.3
6.3 | Cc1c(C(=O)N(c2ccc(O)cc2)c2cnn(C3CC3)c2)cc(-c2cc(F)ccc2C(=O)N2Cc3ccccc3C[C@H]2CN2CCOCC2)n1C [Example 214, N-(1-Cyclopropyl-1H-pyrazol-4-yl)-5-(5-fluoro-2-{[(3S)-3-(morpholin-4-ylmethyl)-3,4-dihydroisoquinolin-2(1H)-yl]carbonyl}phenyl)-N-(4-hydroxyphenyl)-1,2-dimethyl-1H-pyrrole-3-carboxamide hydrochloride] | 236
5.7 | Cc1c(C(=O)N(c2ccc(O)cc2)c2cnc3c(ccn3C)c2)cc(-c2cc(F)ccc2C(=O)N2Cc3ccccc3C[C@H]2CN2CCOCC2)n1C [Example 385, 5-(5-Fluoro-2-{[(3S)-3-(morpholin-4-ylmethyl)-3,4-dihydroisoquinolin-2(1H)-yl]carbonyl}phenyl)-N-(4-hydroxyphenyl)-1,2-dimethyl-N-(1-methyl-1H-pyrrolo[2,3-b]pyridin-5-yl)-1H-pyrrole-3-carboxamide hydrochloride] | 28.7
7.5 | Cc1c(C(=O)N(c2ccncc2)c2ccc(O)cc2)cc(-c2cc(Cl)ccc2C(=O)N2Cc3ccccc3C[C@H]2C)n1C [Example 28, 5-(5-Chloro-2-{[(3R)-3-methyl-3,4-dihydroisoquinolin-2(1H)-yl]carbonyl}phenyl)-N-(4-hydroxyphenyl)-1,2-dimethyl-N-(pyridin-4-yl)-1H-pyrrole-3-carboxamide hydrochloride] | 95.3
2.1 | Cc1c(C(=O)N(c2ccc(O)cc2)c2cnc3c(ccn3C)c2)cc(-c2cc(Cl)ccc2C(=O)N2Cc3ccccc3C[C@H]2CCCN2CCOCC2)n1C [Example 393, 5-(5-Chloro-2-{[(3R)-3-[3-(morpholin-4-yl)propyl]-3,4-dihydroisoquinolin-2(1H)-yl]carbonyl}phenyl)-N-(4-hydroxyphenyl)-1,2-dimethyl-N-(1-methyl-1H-pyrrolo[2,3-b]pyridin-5-yl)-1H-pyrrole-3-carboxamide hydrochloride] | 1.95
